Results taken from publication PMC3513945 (Nature chemical biology, 2012).

Legend:
[1] = molecular target: T1, DAGLβ (Mus musculus, UniProt Q91WC9); assay: inhibition of DAGLβ in transfected HEK293T lysate; assay type: biochemical
T1 sequence (Q91WC9 1-669): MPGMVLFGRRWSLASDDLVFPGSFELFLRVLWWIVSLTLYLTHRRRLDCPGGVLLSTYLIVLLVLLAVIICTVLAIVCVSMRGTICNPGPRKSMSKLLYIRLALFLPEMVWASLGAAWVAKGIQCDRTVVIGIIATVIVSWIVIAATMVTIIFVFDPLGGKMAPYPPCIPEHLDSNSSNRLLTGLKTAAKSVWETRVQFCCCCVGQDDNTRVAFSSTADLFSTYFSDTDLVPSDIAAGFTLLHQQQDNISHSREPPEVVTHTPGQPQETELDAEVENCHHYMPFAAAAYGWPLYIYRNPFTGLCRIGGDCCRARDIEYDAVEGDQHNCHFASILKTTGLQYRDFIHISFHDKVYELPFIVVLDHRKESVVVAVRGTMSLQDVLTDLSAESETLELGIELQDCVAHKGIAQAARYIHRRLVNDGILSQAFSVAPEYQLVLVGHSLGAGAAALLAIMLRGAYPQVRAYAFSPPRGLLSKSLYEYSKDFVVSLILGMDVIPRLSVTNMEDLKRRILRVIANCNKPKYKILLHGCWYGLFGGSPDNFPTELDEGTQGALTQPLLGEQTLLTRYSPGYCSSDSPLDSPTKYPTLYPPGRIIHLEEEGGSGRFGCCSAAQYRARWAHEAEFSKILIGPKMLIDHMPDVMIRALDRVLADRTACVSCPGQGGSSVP

[2] = molecular target: T2, human DAGLβ (Homo sapiens, UniProt Q8NCG7); assay: in vitro inhibition of human DAGLβ activity; assay type: cell-based
T2 sequence (Q8NCG7 1-672): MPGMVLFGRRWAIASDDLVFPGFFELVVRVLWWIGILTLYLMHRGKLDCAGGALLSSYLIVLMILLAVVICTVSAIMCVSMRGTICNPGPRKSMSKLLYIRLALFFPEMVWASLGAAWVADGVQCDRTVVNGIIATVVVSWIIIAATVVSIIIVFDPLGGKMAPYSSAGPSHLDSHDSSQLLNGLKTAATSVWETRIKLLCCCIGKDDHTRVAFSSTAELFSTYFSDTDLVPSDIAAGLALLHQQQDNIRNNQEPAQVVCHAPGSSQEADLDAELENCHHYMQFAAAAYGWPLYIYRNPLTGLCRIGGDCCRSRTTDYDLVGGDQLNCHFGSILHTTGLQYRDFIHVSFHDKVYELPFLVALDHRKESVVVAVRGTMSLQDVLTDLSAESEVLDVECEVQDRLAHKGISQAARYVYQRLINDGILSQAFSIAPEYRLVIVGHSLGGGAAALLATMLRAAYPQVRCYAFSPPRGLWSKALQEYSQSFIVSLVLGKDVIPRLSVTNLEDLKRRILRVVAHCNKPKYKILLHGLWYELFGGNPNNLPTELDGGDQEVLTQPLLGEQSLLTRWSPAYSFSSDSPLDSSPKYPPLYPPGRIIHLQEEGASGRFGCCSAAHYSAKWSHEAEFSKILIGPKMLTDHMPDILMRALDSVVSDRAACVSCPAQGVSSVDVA

[3] = molecular target: T3, ABHD6 (Mus musculus, UniProt Q8R2Y0); assay: competitive ABPP in mouse brain proteome; assay type: biochemical
T3 sequence (Q8R2Y0 1-336): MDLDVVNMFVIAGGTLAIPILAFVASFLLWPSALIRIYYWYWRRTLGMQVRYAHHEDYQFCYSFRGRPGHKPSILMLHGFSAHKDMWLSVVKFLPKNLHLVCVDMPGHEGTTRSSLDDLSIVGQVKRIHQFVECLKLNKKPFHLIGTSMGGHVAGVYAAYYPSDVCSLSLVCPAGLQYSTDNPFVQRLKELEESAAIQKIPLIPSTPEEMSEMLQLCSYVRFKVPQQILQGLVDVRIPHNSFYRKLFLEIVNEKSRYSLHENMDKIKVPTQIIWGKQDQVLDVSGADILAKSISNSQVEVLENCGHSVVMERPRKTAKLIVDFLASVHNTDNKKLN

[4] = molecular target: T1, DAGLβ; assay: competitive ABPP on DAGLβ-transfected HEK293T proteome; assay type: biochemical

Row | IC50 [1] [µM] | SMILES | IC50 [2] [µM] | IC50 [3] [µM] | IC50 [4] [µM]
1 | 0.03 | O=C(N1CCCCC1Cc1ccccc1)n1cc(-c2ccc(Br)cc2)nn1 (stereo not shown) [compound 31, KT116] |  |  | 
2 |  | O=C(N1CCCCC1Cc1ccccc1)n1cc(-c2ccc(-c3ccccc3)cc2)nn1 (stereo not shown) [compound 32, KT109] | 0.58 | 0.016 | 0.042
